Where two headings read alike, the source gives them in different places.
What was measured:
[1] = system: HEY ovarian cancer cells; test: MTT cytotoxicity assay, HEY; assay type: cell-based, human; conditions: read-out: 50% Cytotoxic concentration (IC50)
Method: The sensitivity of a panel of seven human cancer cell lines to SC144 was assessed by MTT-assay. […] The sensitivity towards SC144 was time- and dose-dependent.
Cytotoxicity was assessed by a 3-(4,5-dimethylthiazol-2-yl)-2,5-diphenyltetrazolium bromide assay as previously described (Carmichael et al. (1987) Cancer Res. 47:936-42). Briefly, cells were seeded in 96-well microtiter plates (PC3 and DU145 at 5,000 cells/well and LNCaP at 10,000 cells/well; breast and ovarian cells at 4,000 cells/well) and allowed to attach. Cells were subsequently treated with a continuous exposure to the corresponding drug for 72 hours. A 3-(4,5-dimethylthiazol-2-yl)-2,5-diphenyltetrazolium bromide solution (at a final concentration of 0.5 mg/mL) was added to each well and cells were incubated for 4 hours at 37° C. After removal of the medium, DMSO was added and the absorbance was read at 570 nm. All assays were done in triplicate. The IC50 was then determined for each drug from a plot of log(drug concentration) versus percentage of cell kill.

[2] = system: MDA-MB-435 cells; test: MTT assay, continuous drug exposure for 48 hours (Table 3); assay type: cell-based, human
[3] = Homo sapiens, HEY ovarian cancer cells

| SMILES | IC50 [1, 3] [µM] | also measured |
| --- | --- | --- |
| O=C(CSc1nc2ccccc2c(=O)n1CC1CCCO1)NNC(=O)c1ccccc1O (centres unmarked) | 2 |  |
| N.N.[Cl][Pt][Cl] [Cisplatin] |  | CC50 [2]: 39 ± 1.41 µM; CC80 [2]: 71 ± 1.4 µM |
| CCCn1c(=O)c(C(=O)NNC(=O)c2ccccc2)c(O)c2ccccc21 [SC201] | 2 |  |
| CCCn1c(=O)c(C(=O)NNC(=O)CC(=O)OCC)c(O)c2ccccc21 [SC202] |  | IC50 ([1]; HEY ovarian cancer cells): 1 µM |
| CCn1c(=O)c(C(=O)NNC(=O)Cc2ccccc2)c(O)c2ccccc21 [SC203] | 6 |  |
| COCc1c(C(=O)NNC(=O)c2ccccc2F)nnn1-c1nonc1N [SC204] |  | IC50 ([1]; HEY ovarian cancer cells): 1 µM |
| CCn1c(=O)c(C(=O)NNC(=O)c2ccc(C)cc2)c(O)c2ccccc21 [SC205] | 6 |  |
| CCCn1c(=O)c(C(=O)NNC(=O)c2ccc(C)cc2)c(O)c2ccccc21 [SC206] |  | IC50 ([1]; HEY ovarian cancer cells): 1 µM |
| CCn1c(=O)c(C(=O)NNC(=O)c2cccc(C)c2)c(O)c2ccccc21 [SC207] | 6 |  |
| O=C(CSc1nnc(-c2ccccc2O)o1)NNC(=O)Cc1ccccc1 [SC208] | 4 |  |
| CC1CCN(S(=O)(=O)c2ccc(C(=O)NNC(=O)C3CC3)cc2)CC1 [SC209] | 8 |  |
| O=C(COc1ccc2ccccc2c1)NNC(=O)c1cc2ccccc2cc1O [SC210] |  | IC50 ([1]; HEY ovarian cancer cells): 1 µM |
| CCc1cc2ccccc2nc1SCC(=O)NNC(=O)c1ccccc1 [SC211] | 10 |  |
| CSc1nc(NNC(=O)c2ccco2)c2c3c(sc2n1)COC(C)(C)C3 [SC212] |  | IC50 ([1]; HEY ovarian cancer cells): 1 µM |
| Cc1cccc(C(=O)NNC(=O)CSc2nc3ccccc3cc2C)c1 [SC213] | 12 |  |
| CCn1c(=O)c(C(=O)NNC(=O)c2ccccc2[N+](=O)[O-])c(O)c2ccccc21 [SC214] |  | IC50 ([1]; HEY ovarian cancer cells): 1 µM |
| Cc1cc(C)cc(OCC(=O)NNC(=O)c2cc3ccccc3oc2=O)c1 [SC215] | 12 |  |
| CCn1c(=O)c(C(=O)NNC(=O)c2ccc([N+](=O)[O-])cc2)c(O)c2ccccc21 [SC216] | 5 |  |
| C=C(C)CNC(=S)NNC(=O)CCn1c2ccccc2c2ccccc21 [SC217] | 4 |  |
| CCn1c(=O)c(C(=O)NNC(=O)c2cccc([N+](=O)[O-])c2)c(O)c2ccccc21 [SC218] | 4 |  |
| O=C(NNC(=O)c1c(O)c2ccccc2[nH]c1=O)c1ccccc1[N+](=O)[O-] [SC219] | 2 |  |
| CC1=C(C)C2c3nnc(SCC(=O)NNC(=O)c4ccco4)n3C=NC2S1 (centres unmarked) [SC220] | 4 |  |
| O=C(NNC(=O)c1c(O)c2ccccc2[nH]c1=O)c1cccc([N+](=O)[O-])c1 [SC221] | 4 |  |
| O=C(CSc1nc2ccccc2cc1Cc1ccccc1)NNC(=O)c1ccco1 [SC222] | 8 |  |
| COc1ccc(C(=O)NNC(=O)c2cc3ccccc3oc2=O)cc1OC [SC223] | 4 |  |
| O=C(CSc1nc(C2CC2)nc2sc3c(c12)CCCC3)NNC(=O)c1ccco1 [SC224] | 4 |  |
| CCn1c(=O)c(C(=O)NNC(=O)c2ccccc2F)c(O)c2ccccc21 [SC225] | 2 |  |

| SMILES | IC50 [1, 3] [µM] | also measured |
| --- | --- | --- |
| COc1ccc(C(=O)NNC(=O)CSc2ncnc3sc4c(c23)CCCC4)cc1 [SC226] | 5 |  |
| CCc1cc2ccc(C)cc2nc1SCC(=O)NNC(=O)c1ccco1 [SC227] | 6 |  |
| CCC(=O)NNc1nc2c(c(=O)n1Cc1ccccc1)C1(CCCC1)Cc1ccccc1-2 [SC228] | 6 |  |
| CC1(C)Cc2c(sc3nc(NNC(=O)c4ccccc4)[nH]c(=O)c23)CO1 [SC229] | 8 |  |
| Cc1cccc(C(O)(C(=O)NNC(=O)/C(O)=C/C(=O)c2ccccc2)c2cccc(C)c2)c1 [SC230] |  | IC50 ([1]; Homo sapiens): 3 µM |
| CCCCCCCC(=O)NNC(=O)c1c(O)c2ccccc2n(CC)c1=O [SC231] | 3 |  |
| CC1=C(C)C2c3nnc(SCC(=O)NNC(=O)c4ccco4)n3C(C(C)C)=NC2S1 (centres unmarked) [SC232] | 6 |  |
| CCCCCCCCC(=O)NNC(=O)c1c(O)c2ccccc2n(C)c1=O [SC233] | 5 |  |
| Cc1cccc(C(=O)NNC(=O)CSc2nc(-c3ccccc3)nc3ccc(F)cc23)c1 [SC234] | 8 |  |
| CCCCCCC(=O)NNC(=O)c1c(O)c2ccccc2n(CCC)c1=O [SC235] | 7 |  |
| CCCCCCCCCC(=O)NNC(=O)c1c(O)c2ccccc2[nH]c1=O [SC237] | 7 |  |
| O=C(NNC(=O)c1cc2ccccc2oc1=O)c1ccc(S(=O)(=O)N2CCCCC2)cc1 [SC238] | 3 |  |
| O=C(NNC(=O)c1cc2ccccc2oc1=O)c1ccc(S(=O)(=O)N2CCOCC2)cc1 [SC239] | 3 |  |
| Cc1ccc(-n2c(SCC(=O)NNC(=O)c3ccccc3O)nnc2-c2ccccc2)cc1 [SC240] | 5 |  |
| O=C(CSc1nnc(-c2ccccc2)n1Cc1ccccc1)NNC(=O)c1ccccc1O [SC241] | 5 |  |
| COc1ccc2nc(C)cc(SCC(=O)NNC(=O)COc3cccc4ccccc34)c2c1 [SC242] | 5 |  |
| Cc1ccc(C(=O)n2nnc3c(NNC(=O)COc4ccc(F)cc4)nc(C4CC4)nc32)cc1 [SC243] | 6 |  |
| O=C(CSC1=NNC2C3=C(N=C(C4CC4)N12)S1=C(CCCC1)C3)NNC(=O)C1C=CC=CO1 (centres unmarked) [SC244] | 15 |  |
| Cc1ccc(-n2c(SCC(=O)NNC(=O)c3ccccc3O)nnc2-c2ccccc2O)cc1 [SC245] |  | IC50 ([1]; HEY ovarian cancer cells): 1 µM |
| O=C(CSc1nnc(-c2ccccc2O)n1Cc1ccccc1)NNC(=O)c1ccccc1O [SC246] |  | IC50 ([1]; HEY ovarian cancer cells): 1 µM |
| O=C(CSc1nnc2c3c4c(sc3ncn12)CCCC4)NNC(=O)c1ccco1 [SC247] | 14 |  |
| O=C(CSc1nnc(Cc2ccccc2)n1-c1cccc(Cl)c1)NNC(=O)c1ccccc1O [SC248] | 2 |  |
| Cc1ccc(-n2c(SCC(=O)NNC(=O)Cc3ccccc3)nc3sc4c(c3c2=O)CCCC4)cc1 [SC249] | 2 |  |
| Cc1ccc(C(=O)NNC(=O)CSc2nnc3c4c5c(sc4nc(C4CC4)n23)CCCC5)cc1 [SC250] | 2 |  |
| O=C(NNC(=O)c1cccs1)c1ccco1 [SC251] | 15 |  |
| O=C(NNC(=O)c1cccs1)c1ccccn1 [SC252] | 16 |  |
| CCn1c(NNC=O)nc2c1c(=O)[nH]c(=O)n2C [SC253] | 12 |  |

| SMILES | IC50 [1, 3] [µM] | also measured |
| --- | --- | --- |
| Cc1occc1C(=O)NNC(=O)c1ccccc1F [SC254] | 17 |  |
| O=C(NNC(=O)c1ccccc1O)c1cccs1 [SC255] | 14 |  |
| CCC(=O)NNC(=O)c1c(O)c2ccccc2[nH]c1=O [SC256] | 3 |  |
| O=C(NNC(=O)c1cccs1)c1ccc(O)c(O)c1 [SC257] | 2 |  |
| O=C(/C=C/NNC(=O)c1ccccc1O)c1ccccc1 [SC258] | 2 |  |
| O=C(O)CCCC(=O)NNC(=O)c1ccccc1Cl [SC259] | 18 |  |
| COc1ccccc1C(=O)NNC(=O)c1ccccc1O [SC260] | 10 |  |
| O=C(NNC(=O)c1cccc2ccccc12)c1cccs1 [SC261] | 11 |  |
| O=C(NNC(=O)c1cccs1)c1ccc2ccccc2c1 [SC262] | 11 |  |
| O=C(O)/C=C/C(=O)NNC(=O)c1cc(-c2ccccc2)[nH]n1 [SC263] | 5 |  |
| O=C(NNC1=CS(=O)(=O)c2ccccc21)c1ccccc1 [SC264] | 5 |  |
| O=C(NNC1=NS(=O)(=O)c2ccccc21)c1ccncc1 [SC265] | 5 |  |
| O=C(NNC(=O)c1cc2ccccc2oc1=O)c1ccncc1 [SC266] | 7 |  |
| O=C(NNC(=O)c1c(O)c2ccccc2[nH]c1=O)c1ccccc1 [SC268] | 10 |  |
| O=C(CCc1ccccc1)NNC(=O)c1ccc2ccccc2c1O [SC270] | 5 |  |
| O=C(COc1ccc2ccccc2c1)NNC(=O)c1ccccc1O [SC271] | 6 |  |
| COc1cccc(C(=O)NNC(=O)c2ccc3ccccc3c2O)c1 [SC272] | 7 |  |
| COc1ccccc1C(=O)NNC(=O)c1ccc2ccccc2c1O [SC273] | 11 |  |
| COc1ccccc1C(=O)NNC(=O)c1cc2ccccc2cc1O [SC274] | 11 |  |
| COc1ccc(C(=O)NNC(=O)c2ccc3ccccc3c2O)cc1 [SC275] | 12 |  |
| COc1ccc(C(=O)NNC(=O)c2cc3ccccc3cc2O)cc1 [SC276] | 13 |  |
| O=C(Cc1ccccc1)NNC(=O)c1c(O)c2ccccc2[nH]c1=O [SC277] | 14 |  |
| Cc1ccc(C(=O)NNC(=O)c2c(O)c3ccccc3[nH]c2=O)cc1 [SC278] | 13 |  |
| O=C(NNC(=O)c1c(O)c2ccccc2[nH]c1=O)c1ccccc1F [SC279] | 6 |  |
| O=C(CCl)NNc1nc(-c2ccccc2)c2cc(Cl)ccc2n1 [SC280] | 6 |  |
